This assay deals with hMAT2A (Homo sapiens, UniProt P31153). In words: RP-HPLC of AdoMet product formation. In kind it is biochemical. As to conditions: read-out: Km μmol L^-1; saturating ATP 2 mM; 25 mM Tris pH 8.0, 10 mM MgCl2, 50 mM KCl; 37 °C; text prints error ± 27.

Data on one compound can be found in article PMC5026608 (ACS chemical biology, 2016).

Chain of hMAT2A (P31153 whole entry): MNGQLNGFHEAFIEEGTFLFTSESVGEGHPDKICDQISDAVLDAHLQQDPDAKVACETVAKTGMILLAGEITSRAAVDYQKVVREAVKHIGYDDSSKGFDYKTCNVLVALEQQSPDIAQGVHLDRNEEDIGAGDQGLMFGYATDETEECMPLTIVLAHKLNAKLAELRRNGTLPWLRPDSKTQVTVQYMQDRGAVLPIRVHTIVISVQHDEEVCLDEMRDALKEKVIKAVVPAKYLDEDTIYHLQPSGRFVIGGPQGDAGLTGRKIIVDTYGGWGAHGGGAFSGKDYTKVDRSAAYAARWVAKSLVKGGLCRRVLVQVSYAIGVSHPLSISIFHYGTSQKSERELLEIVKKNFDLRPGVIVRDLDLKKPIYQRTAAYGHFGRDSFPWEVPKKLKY

Consider `CSCC[C@H](N)C(=O)O` [LMet], for which the Km worked out at 397 ± 29 µM.

A word on the Km: it is the concentration of substrate that gives half-maximal velocity.
